In the CheMixHub viscosity set:
± gives the uncertainty stated by the source.

Experiment: xn = mol fraction of the nth substance listed

[Br-].[Na+] + O
viscosity [mPa·s]
Settings	100 kPa	101.3 kPa
293.15 K, x1 = 0.0009	–	1.005 ± 0.022
293.15 K, x1 = 0.0018	–	1.007 ± 0.022
293.15 K, x1 = 0.00893	–	1.027 ± 0.022
293.15 K, x1 = 0.0177	–	1.055 ± 0.023
293.15 K, x1 = 0.03478	–	1.131 ± 0.024
293.15 K, x1 = 0.05127	–	1.235 ± 0.026
293.15 K, x1 = 0.06722	–	1.368 ± 0.029
293.15 K, x1 = 0.09755	–	1.746 ± 0.037
293.15 K, x1 = 0.126	–	2.317 ± 0.05
298.15 K, x1 = 0.00088	0.8936 ± 0.015	–
298.15 K, x1 = 0.0009	–	0.8935 ± 0.019
298.15 K, x1 = 0.0018	–	0.8956 ± 0.019
298.15 K, x1 = 0.00351	0.895 ± 0.038	–
298.15 K, x1 = 0.00368	0.9007 ± 0.015	–
298.15 K, x1 = 0.00829	0.9176 ± 0.016	–
298.15 K, x1 = 0.00879	0.9099 ± 0.039	–
298.15 K, x1 = 0.00893	–	0.9162 ± 0.019
298.15 K, x1 = 0.0101	0.9211 ± 0.016	–
298.15 K, x1 = 0.0146	0.9363 ± 0.016	–
298.15 K, x1 = 0.0177	0.9479 ± 0.04	0.9443 ± 0.02
298.15 K, x1 = 0.01952	0.9523 ± 0.016	–
298.15 K, x1 = 0.02624	0.9808 ± 0.017	–
298.15 K, x1 = 0.03478	–	1.016 ± 0.022
298.15 K, x1 = 0.03489	1.022 ± 0.017	–
298.15 K, x1 = 0.04115	1.054 ± 0.018	–
298.15 K, x1 = 0.05064	1.112 ± 0.019	–
298.15 K, x1 = 0.05127	–	1.111 ± 0.024
298.15 K, x1 = 0.05382	1.186 ± 0.051	–
298.15 K, x1 = 0.06722	–	1.231 ± 0.026
298.15 K, x1 = 0.08817	1.474 ± 0.063	–
298.15 K, x1 = 0.09755	–	1.563 ± 0.033
298.15 K, x1 = 0.126	–	2.052 ± 0.044
303.15 K, x1 = 0.0009	–	0.8006 ± 0.017
303.15 K, x1 = 0.0018	–	0.803 ± 0.017
303.15 K, x1 = 0.00893	–	0.824 ± 0.017
303.15 K, x1 = 0.0177	–	0.8517 ± 0.018
303.15 K, x1 = 0.03478	–	0.9187 ± 0.019
303.15 K, x1 = 0.05127	–	1.006 ± 0.021
303.15 K, x1 = 0.06722	–	1.114 ± 0.024
303.15 K, x1 = 0.09755	–	1.407 ± 0.03
303.15 K, x1 = 0.126	–	1.833 ± 0.039
303.74 K, x1 = 0.03489	0.9102 ± 0.015	–
303.75 K, x1 = 0.05064	0.9936 ± 0.017	–
303.86 K, x1 = 0.04115	0.9393 ± 0.016	–
306.42 K, x1 = 0.00829	0.7716 ± 0.013	–
308.15 K, x1 = 0.0009	–	0.7225 ± 0.015
308.15 K, x1 = 0.0018	–	0.7249 ± 0.015
308.15 K, x1 = 0.00893	–	0.7458 ± 0.016
308.15 K, x1 = 0.0177	–	0.7722 ± 0.016
308.15 K, x1 = 0.03478	–	0.8359 ± 0.018
308.15 K, x1 = 0.05127	–	0.9163 ± 0.019
308.15 K, x1 = 0.06722	–	1.014 ± 0.022
308.15 K, x1 = 0.09755	–	1.277 ± 0.027
308.15 K, x1 = 0.126	–	1.649 ± 0.035
308.44 K, x1 = 0.01952	0.7804 ± 0.013	–
308.74 K, x1 = 0.00088	0.7144 ± 0.012	–
308.75 K, x1 = 0.02624	0.7947 ± 0.014	–
308.94 K, x1 = 0.0146	0.7534 ± 0.013	–
309.24 K, x1 = 0.0101	0.7342 ± 0.013	–
310.75 K, x1 = 0.05064	0.8742 ± 0.015	–
311.42 K, x1 = 0.04115	0.8205 ± 0.014	–
311.74 K, x1 = 0.00368	0.6805 ± 0.012	–
313.15 K, x1 = 0.0009	–	0.6562 ± 0.014
313.15 K, x1 = 0.0018	–	0.6587 ± 0.014
313.15 K, x1 = 0.00893	–	0.679 ± 0.014
313.15 K, x1 = 0.0177	–	0.7046 ± 0.015
313.15 K, x1 = 0.03478	–	0.7648 ± 0.016
313.15 K, x1 = 0.05127	–	0.8392 ± 0.018
313.15 K, x1 = 0.06722	–	0.929 ± 0.02
313.15 K, x1 = 0.09755	–	1.165 ± 0.025
313.15 K, x1 = 0.126	–	1.494 ± 0.032
318.15 K, x1 = 0.0009	–	0.5992 ± 0.013
318.15 K, x1 = 0.0018	–	0.6017 ± 0.013
318.15 K, x1 = 0.00893	–	0.6213 ± 0.013
318.15 K, x1 = 0.0177	–	0.646 ± 0.014
318.15 K, x1 = 0.03478	–	0.7032 ± 0.015
318.15 K, x1 = 0.05127	–	0.7724 ± 0.016
318.15 K, x1 = 0.06722	–	0.855 ± 0.018
318.15 K, x1 = 0.09755	–	1.069 ± 0.023
318.15 K, x1 = 0.126	–	1.363 ± 0.029
323.02 K, x1 = 0.00088	0.5507 ± 0.0095	–
323.15 K, x1 = 0.0009	–	0.5496 ± 0.012
323.15 K, x1 = 0.0018	–	0.5519 ± 0.012
323.15 K, x1 = 0.00351	0.5505 ± 0.024	–
323.15 K, x1 = 0.00879	0.5603 ± 0.024	–
323.15 K, x1 = 0.00893	–	0.5708 ± 0.012
323.15 K, x1 = 0.0177	0.5834 ± 0.025	0.5948 ± 0.013
323.15 K, x1 = 0.03478	–	0.6489 ± 0.014
323.15 K, x1 = 0.05127	–	0.7136 ± 0.015
323.15 K, x1 = 0.05382	0.7427 ± 0.032	–
323.15 K, x1 = 0.06722	–	0.7896 ± 0.017
323.15 K, x1 = 0.08817	0.9292 ± 0.04	–
323.15 K, x1 = 0.09755	–	0.9845 ± 0.021
323.15 K, x1 = 0.126	–	1.248 ± 0.026
